Test results as given in patent US5618948A, “Process for preparing an enantiomer of a carbazole derivative” (SmithKline Beecham p.l.c., priority 1995, dated 1997).

Each molecule was assayed against T1, 5-HT1 -like Receptor (Oryctolagus cuniculus, UniProt P49144) (assay: 5-HT1-like Receptor Screen, rabbit isolated basilar artery (isometric tension, cumulative concentration-effect curves)). Conditions: endothelium removed, in presence of ascorbate, indomethacin, cocaine, ketanserin and prazosin.
T1 construct: the basilar artery removed with the aid of a dissecting microscope; from tissue; host or cells: rabbit basilar artery ring segments, endothelium removed
T1 sequence (P49144 whole entry): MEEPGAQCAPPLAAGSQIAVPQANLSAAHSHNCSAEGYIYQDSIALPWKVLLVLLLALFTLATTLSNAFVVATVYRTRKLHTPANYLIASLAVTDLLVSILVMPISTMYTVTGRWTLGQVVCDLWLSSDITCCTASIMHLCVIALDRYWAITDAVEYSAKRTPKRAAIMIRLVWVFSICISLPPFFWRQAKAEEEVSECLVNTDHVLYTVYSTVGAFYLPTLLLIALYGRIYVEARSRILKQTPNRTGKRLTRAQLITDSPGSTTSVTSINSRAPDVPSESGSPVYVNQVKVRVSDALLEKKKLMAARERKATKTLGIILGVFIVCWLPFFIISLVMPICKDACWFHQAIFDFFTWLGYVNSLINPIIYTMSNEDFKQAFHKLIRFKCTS
Type: cell-based
Experimental: 5-HT1 -like Receptor Screen
Experiments were performed in intracranial arteries from rabbit isolated basilar artery in a similar method to that described previously (Parsons and Whalley, 1989, Eur J Pharmacol 174, 189-196.)
In brief, rabbits were killed by overdose with anaesthetic (sodium pentobarbitone). The whole brain was quickly removed and immersed in ice cold modified Kreb's solution and the basilar artery removed with the aid of a dissecting microscope. The Krebs solution was of the following composition (mM) Na^+ (120); K^+ (5); Ca^2+ (2.25)Mg^2+(0.5); Cl^- (98.5); SO4^2- (1); ETDA (0.04), equilibrated with 95% O2 /5% CO2. The endothelium was removed by a gentle rubbing of the lumen with a fine metal wire. Arteries were then cut into ring segments (ca 4-5 mm wide) and set up for recording of isometric tension in 50 ml tissue baths in modified Krebs solution with the additional supplement of (mM); […] (20); fumarate (10); pyruvate (5); L-glutamate (5) and glucose (10). The arteries were then placed under a resting force of 3-4 mN maintained at 37° C. and the solution bubbled with 95% O2 /5% CO2.
After tests for initial reactivity with 90 mM KCl depolarising solution and for lack of acetylcholine-induced relaxation of 5-HT ([…]) precontraction, cumulative concentration-effect curves ([…]) to 5-HT were constructed in the presence of ascorbate […], cocaine […], indomethacin […], ketanserin […] and prazosin […].
Following a 45-60 min wash period, cumulative concentration-effect curves to the test compounds or 5-HT (as a time match control) were constructed in the presence of ascorbate, indomethacin, cocaine, ketanserin and prazosin.
R-(+)-6-carboxamido-3-N-methylamino-1,2,3,4-tetrahydrocarbazole; (compound A)
S-(-)-6-carboxamido-3-N-methylamino-1,2,3,4-tetrahydrocarbazole; (compound B)
R-(+)-6-carboxamido-3-N-ethylamino-1,2,3,4-tetrahydrocarbazole; (compound C)
Work on `CN[C@H]1CCc2[nH]c3ccc(C(N)=O)cc3c2C1` [Compound B, S-(-)-6-carboxamido-3-N-methylamino-1,2,3,4-tetrahydrocarbazole] yielded an EC50 of over 2 µM. With `CCN[C@@H]1CCc2[nH]c3ccc(C(N)=O)cc3c2C1` [Compound C, R-(+)-6-carboxamido-3-N-ethylamino-1,2,3,4-tetrahydrocarbazole] the EC50 was 0.16 µM. `CN[C@@H]1CCc2[nH]c3ccc(C(N)=O)cc3c2C1` [Compound A, R-(+)-6-carboxamido-3-N-methylamino-1,2,3,4-tetrahydrocarbazole] showed an EC50 of 0.03 µM.
